Experimental data published in patent publication US11510920B2, “Compositions and methods for treating EZH2-mediated cancer” (Icahn School of Medicine at Mount Sinai, priority 2016, dated 2022).

The compounds below were run on HCC1187 cells (assay: Proliferation assay (IncuCyte cell confluence), HCC1187). Conditions: Homo sapiens, concentration for 50% of maximal inhibition of cell proliferation.
Format: cell-based
Experimental: (§1) 1-3×10^3 cells were seeded in 96-well plates in duplicates and treated at the indicated compound concentrations. Cells were monitored using the IncuCyte® live cell imaging system (Essen BioScience™, Ann Arbor, Mich.) which was placed in a cell culture incubator operated at 37° C. and 5% CO2. Cell confluence was determined using calculations derived from phase-contrast images. The concentration for 50% of maximal inhibition of cell proliferation (GI50) values were determined by fitting to a standard four-parameter logistic using GraphPad Prism® v5. Graphs depicting the GI50s of select EZH2 degraders/disruptors described here for various cancer cell lines are shown in FIGS. 4-49.

Structure (SMILES) | GI50 [µM]
CCCc1cc(C)[nH]c(=O)c1CNC(=O)c1cc(-c2ccc(N3CCN(C(=O)CC45CC6CC(CC(C6)C4)C5)CC3)nc2)cc2c1cnn2C(C)C [AM16-37A, 6-(6-(4-(2-((1s,3s)-adamantan-1-yl)acetyl)piperazin-1-yl)pyridin-3-yl)-1-isopropyl-N-((6-methyl-2-oxo-4-propyl-1,2-dihydropyridin-3-yl)methyl)-1H-indazole-4-carboxamide] | 2.1
Cc1cc(C)c(CNC(=O)c2cc(-c3ccc(N4CCN(C(=O)CCC56CC7CC(CC(C7)C5)C6)CC4)nc3)cc3c2cnn3C(C)C)c(=O)[nH]1 [AM16-93A, 6-(6-(4-(3-((1r,3s)-adamantan-1-yl)propanoyl)piperazin-1-yl)pyridin-3-yl)-N-((4,6-dimethyl-2-oxo-1,2-dihydropyridin-3-yl)methyl)-1-isopropyl-1H-indazole-4-carboxamide] | 1.5
CCCc1cc(C)[nH]c(=O)c1CNC(=O)c1cc(-c2ccc(N3CCN(C(=O)CCC45CC6CC(CC(C6)C4)C5)CC3)nc2)cc2c1cnn2C(C)C [AM16-38A, 6-(6-(4-(3-((3r,5r,7r)-adamantan-1-yl)propanoyl)piperazin-1-yl)pyridin-3-yl)-1-isopropyl-N-((6-methyl-2-oxo-4-propyl-1,2-dihydropyridin-3-yl)methyl)-1H-indazole-4-carboxamide] | 2
CCCc1cc(C)[nH]c(=O)c1CNC(=O)c1cc(-c2ccc(N3CCN(CCNC(=O)CCC45CC6CC(CC(C6)C4)C5)CC3)nc2)cc2c1cnn2C(C)C [AM16-11A, 6-(6-(4-(2-(3-((1r,3s)-adamantan-1-yl)propanamido)ethyl)piperazin-1-yl)pyridin-3-yl)-1-isopropyl-N-((6-methyl-2-oxo-4-propyl-1,2-dihydro-pyridin-3-yl)methyl)-1H-indazole-4-carboxamide] | 2.6
Cc1cc(C)c(CNC(=O)c2cc(-c3ccc(N4CCN(C(=O)[C@H](C)CCC56CC7CC(CC(C7)C5)C6)CC4)nc3)cc3c2cnn3C(C)C)c(=O)[nH]1 [AM16-97A, 6-(6-(4-((2R)-4-((1r,3S)-adamantan-1-yl)-2-methylbutanoyl)piperazin-1-yl)pyridin-3-yl)-N-((4,6-dimethyl-2-oxo-1,2-dihydropyridin-3-yl)methyl)-1-isopropyl-1H-indazole-4-carboxamide] | 1.2
Cc1cc(C)c(CNC(=O)c2cc(-c3ccc(N4CCN(CCNC(=O)CCC56CC7CC(CC(C7)C5)C6)CC4)nc3)cc3c2cnn3C(C)C)c(=O)[nH]1 [XY019-44, 6-(6-(4-(2-(3-((3r,5r,7r)-adamantan-1-yl)propanamido)ethyl)piperazin-1-yl)pyridin-3-yl)-N-((4,6-dimethyl-2-oxo-1,2-dihydropyridin-3-yl)methyl)-1-isopropyl-1H-indazole-4-carboxamide] | 2.2
Cc1cc(C)c(CNC(=O)c2cc(-c3ccc(N4CCN(CCCNC(=O)[C@H](C)CCC56CC7CC(CC(C7)C5)C6)CC4)nc3)cc3c2cnn3C(C)C)c(=O)[nH]1 [AM16-106A, 6-(6-(4-(3-((R)-4-((3R,5R,7R)-adamantan-1-yl)-2-methyl-butanamido)propyl)piperazin-1-yl)pyridin-3-yl)-N-((4,6-dimethyl-2-oxo-1,2-dihydro-pyridin-3-yl)methyl)-1-isopropyl-1H-indazole-4-carboxamide] | 4.3

The compounds below were run on MDA-MB-468 cells (assay: Proliferation assay (IncuCyte cell confluence), MDA-MB-468). Conditions: Homo sapiens, concentration for 50% of maximal inhibition of cell proliferation.
Format: cell-based
Experimental: as §1

Structure (SMILES) | GI50 [µM]
Cc1cc(C)c(CNC(=O)c2c(C)n([C@@H](C)C3CCN(CCNCCC45CC6CC(CC(C6)C4)C5)CC3)c3ccccc23)c(=O)[nH]1 [XF042-133, 1-((S)-1-(1-(2-((2-((3S,5S,7S)-adamantan-1-yl)ethyl)amino)ethyl)piperidin-4-yl)ethyl)-N-((4,6-dimethyl-2-oxo-1,2-dihydropyridin-3-yl)methyl)-2-methyl-1H-indole-3-carboxamide] | 4.9
CCN(c1cc(-c2ccc(CN3CCN(CCNC(=O)CCSCCC[C@@H]4/C=C(\C)C[C@H](C)C[C@H](OC)[C@H]5O[C@@](O)(C(=O)C(=O)N6CCCC[C@H]6C(=O)O[C@H](/C(C)=C/[C@@H]6CC[C@@H](O)[C@H](OC)C6)[C@H](C)[C@@H](O)CC4=O)[C@H](C)C[C@@H]5OC)CC3)cc2)cc(C(=O)NCc2c(C)cc(C)[nH]c2=O)c1C)C1CCOCC1 [CZ40-131, FK506 adduct with N-((4,6-dimethyl-2-oxo-1,2-dihydropyridin-3-yl)methyl)-5-(ethyl(tetrahydro-2H-pyran-4-yl)amino)-4′-((4-(2-(3-mercaptopropanamido)ethyl)piperazin-1-yl)methyl)-4-methyl-[1,1′-biphenyl]-3-carboxamide] | 1.5
Cc1cc(C)c(CNC(=O)c2cc(-c3ccc(N4CCN(CCNCCC56CC7CC(CC(C7)C5)C6)CC4)nc3)cc3c2c(C)cn3C(C)C)c(=O)[nH]1 [AM41-41A, 6-(6-(4-(2-((2-((3r,5r,7r)-adamantan-1-yl)ethyl)amino)ethyl)piperazin-1-yl)pyridin-3-yl)-N-((4,6-dimethyl-2-oxo-1,2-dihydropyridin-3-yl)methyl)-1-isopropyl-3-methyl-1H-indole-4-carboxamide] | 2.3
CO[C@H]1C[C@@H](C)C/C(C)=C/[C@@H](CCCSCCC(=O)NCCN2CCC([C@H](C)n3c(C)c(C(=O)NCc4c(C)cc(C)[nH]c4=O)c4ccccc43)CC2)C(=O)C[C@H](O)[C@@H](C)[C@@H](/C(C)=C/[C@@H]2CC[C@@H](O)[C@H](OC)C2)OC(=O)[C@@H]2CCCCN2C(=O)C(=O)[C@]2(O)O[C@H]1[C@@H](OC)C[C@H]2C [XF042-92, FK506 adduct with (S)-N-((4,6-dimethyl-2-oxo-1,2-dihydropyridin-3-yl)methyl)-1-(1-(1-(2-(3-mercaptopropanamido)ethyl)piperidin-4-yl)ethyl)-2-methyl-1H-indole-3-carboxamide] | 2.6
CCN(c1cc(-c2ccc(CN3CCN(CCNCCC45CC6CC(CC(C6)C4)C5)CC3)cc2)cc(C(=O)NCc2c(C)cc(C)[nH]c2=O)c1C)C1CCOCC1 [CZ40-149, 4′-((4-(2-((2-((1s,3s)-adamantan-1-yl)ethyl)amino)ethyl)piperazin-1-yl)methyl)-N-((4,6-dimethyl-2-oxo-1,2-dihydropyridin-3-yl)methyl)-5-(ethyl(tetra-hydro-2H-pyran-4-yl)amino)-4-methyl-[1,1′-biphenyl]-3-carboxamide] | 1.8
COc1cc(C)[nH]c(=O)c1CNC(=O)c1c(C)n([C@@H](C)C2CCN(CCN(CCC34CC5CC(CC(C5)C3)C4)CCC34CC5CC(CC(C5)C3)C4)CC2)c2ccccc12 [XF042-95, 1-((S)-1-(1-(2-(bis(2-((3S,5S,7S)-adamantan-1-yl)ethyl)amino)ethyl)piperidin-4-yl)ethyl)-N-((4-methoxy-6-methyl-2-oxo-1,2-dihydro-pyridin-3-yl)methyl)-2-methyl-1H-indole-3-carboxamide] | 2.5
CCN(c1cc(-c2ccc(CN3CCN(CCN(CCC45CC6CC(CC(C6)C4)C5)CCC45CC6CC(CC(C6)C4)C5)CC3)cc2)cc(C(=O)NCc2c(C)cc(C)[nH]c2=O)c1C)C1CCOCC1 [CZ40-75, 4′-((4-(2-((2-((1s,3S)-adamantan-1-yl)ethyl)(2-((3R,5R,7R)-adamantan-1-yl)ethyl)amino)ethyl)piperazin-1-yl)methyl)-N-((4,6-dimethyl-2-oxo-1,2-dihydropyridin-3-yl)methyl)-5-(ethyl(tetra-hydro-2H-pyran-4-yl)amino)-4-methyl-[1,1′-biphenyl]-3-carboxamide] | 1.1
Cc1cc(C)c(CNC(=O)c2c(C)n([C@@H](C)C3CCN(CCNC(=O)CC4C5CC6CC(C5)CC4C6)CC3)c3ccccc23)c(=O)[nH]1 (stereo partly drawn) [XF042-90, 1-((S)-1-(1-(2-(2-((1R,3S,5S,7S)-adamantan-2-yl)acetamido)ethyl)piperidin-4-yl)ethyl)-N-((4,6-dimethyl-2-oxo-1,2-dihydropyridin-3-yl)methyl)-2-methyl-1H-indole-3-carboxamide] | 7.2
CO[C@H]1C[C@@H](C)C/C(C)=C/[C@@H](CCCSCCC(=O)NCCN2CCN(c3ccc(-c4cc(C(=O)NCc5c(C)cc(C)[nH]c5=O)c5cnn(C(C)C)c5c4)cn3)CC2)C(=O)C[C@H](O)[C@@H](C)[C@@H](/C(C)=C/[C@@H]2CC[C@@H](O)[C@H](OC)C2)OC(=O)[C@@H]2CCCCN2C(=O)C(=O)[C@]2(O)O[C@H]1[C@@H](OC)C[C@H]2C [XY028-086, FK506 adduct with N-((4,6-dimethyl-2-oxo-1,2-dihydropyridin-3-yl)methyl)-1-isopropyl-6-(6-(4-(2-(3-mercaptopro-panamido)ethyl)piperazin-1-yl)pyridin-3-yl)-1H-indazole-4-carboxamide] | 2.4
Cc1cc(C)c(CNC(=O)c2cc(-c3ccc(N4CCN(CCNC(=O)CCOCCNc5cccc6c5C(=O)N(C5CCC(=O)NC5=O)C6=O)CC4)nc3)cc3c2cnn3C(C)C)c(=O)[nH]1 (stereo not drawn) [AM29-177A, N-((4,6-dimethyl-2-oxo-1,2-dihydropyridin-3-yl)methyl)-6-(6-(4-(2-(3-(2-((2-(2,6-dioxopiperidin-3-yl)-1,3-dioxoisoindolin-4-yl)amino)ethoxy)propanamido)ethyl)piperazin-1-yl)pyridin-3-yl)-1-isopropyl-1H-indazole-4-carboxamide] | 2.5
Cc1cc(C)c(CNC(=O)c2c(C)n([C@@H](C)C3CCN(CCN(CCC45CC6CC(CC(C6)C4)C5)CCC45CC6CC(CC(C6)C4)C5)CC3)c3ccccc23)c(=O)[nH]1 [XF042-93, 1-((S)-1-(1-(2-(bis(2-((3S,5S,7S)-adamantan-1-yl)ethyl)amino)ethyl)piperidin-4-yl)ethyl)-N-((4,6-dimethyl-2-oxo-1,2-dihydropyridin-3-yl)methyl)-2-methyl-1H-indole-3-carboxamide] | 2.2
